Consider 7 molecules from patent US20220202905A1, “COMPOSITION FOR PREVENTING OR TREATING NEUROTROPHIC KERATITIS WHICH CONTAINS PACAP PEPTIDE OR STABILIZED PACAP PEPTIDE” (SENJU PHARMACEUTICAL CO., LTD., priority 2019, published 2022).

The target of one data set is T1, PAC1R (Homo sapiens, UniProt P41586).
T1 construct: host or cells: CHO-K1
T1 sequence (P41586 21-468): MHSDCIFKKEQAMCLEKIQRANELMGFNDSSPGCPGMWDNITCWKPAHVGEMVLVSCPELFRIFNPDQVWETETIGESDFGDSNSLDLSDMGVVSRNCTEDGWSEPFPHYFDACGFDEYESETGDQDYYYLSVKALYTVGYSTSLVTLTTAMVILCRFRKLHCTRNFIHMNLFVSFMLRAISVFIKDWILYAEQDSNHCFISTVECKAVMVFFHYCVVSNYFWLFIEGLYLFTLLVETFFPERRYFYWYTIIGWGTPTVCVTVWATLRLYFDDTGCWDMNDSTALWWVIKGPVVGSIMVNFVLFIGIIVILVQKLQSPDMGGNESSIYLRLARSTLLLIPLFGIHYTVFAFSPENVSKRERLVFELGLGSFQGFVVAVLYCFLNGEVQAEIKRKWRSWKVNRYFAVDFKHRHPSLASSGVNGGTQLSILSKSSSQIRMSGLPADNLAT
Nature of the data set: cAMP assay in PAC1R high-expressing CHO-K1 cell line. It counts as cell-based. The note with it: Table 12; cAMP inducing effect, CHO-K1 PAC1R high-expressing cells. The protocol: The cells were cultured for 18 to 24 hours at 37° C. in a 5% C02 incubator, adhering the cells to the plate. […] A 5-fold dilution series was then prepared with the same Cell assay buffer and used in an assay. The cAMP assay was carried out using a Hit Hunter cAMP Assay for Biologics kit (product of DiscoveRx, Cat. No. 90-0075LM25), according to the included kit instructions. […] Next, the culture medium was removed from the CHO-K1 cell culture plate, washing was performed with PBS, and the peptide-cAMP antibody liquid mixtures were added to the cells and incubated for 30 minutes under a 5% CO2 atmosphere at 37° C. A working detection solution was then added and the culture plate was shielded from light with aluminum foil and incubated at 25° C. for 1 hour. After incubation, Solution A was added and the culture plate was shielded from light with aluminum foil and then incubated at 25° C. for 3 hours. […] The obtained value for the Relative Luminescence Unit (RLU) was analyzed with GraphPad Prism Ver 6.05 (product of Graph Pad) and the EC50 value was calculated for each peptide. […] FIG. 2 and Table 11. […] A 5-fold dilution series was then prepared with the same Cell assay buffer and used in an assay. […] A 5-fold dilution series was then prepared with the same Cell assay buffer and used in an assay.
For orientation: Changes in cAMP serve as a functional read-out for many G protein-coupled receptors.

For data set [1], the system named is rat trigeminal nerve cells. Nature of the data set: Axon elongation effect on cultured rat trigeminal nerve cells. It counts as cell-based. Conditions: 1 μM peptide, 24 hours; N=8; Dunnett's test vs control P<0.001; FIG. 5. As for the experimental part: Rats (Sic: Sprague-Dawley, 17-day-old, including female and male) purchased from Japan SLC, Inc. were euthanized by carbon dioxide gas inhalation and the trigeminal ganglion was harvested. The harvested trigeminal ganglion was washed with Hanks' balanced salt solution (HBSS) and then treated with collagenase A (Roche) for 30 minutes at 37° C. A neuron dispersion (Wako) was then used according to protocol for dispersion of the cells. Debris removal solution (Miltenyi biotec) and Myelin removal beads II (Miltenyi biotec) were used according to protocol to remove the debris and myelin. After suspending the isolated trigeminal nerve cells in culture solution, they were seeded onto a polylysine/laminin-coated 8-well chamber slide (Corning) at 2.5×10^3 cells/well. The culture solution used was Neurobasal-A containing B27 supplement (final concentration: 2%) and GlutaMAX (final concentration: 2 mM) and penicillin/streptomycin (final concentration: 1%). The culturing conditions were a carbon dioxide concentration of 5%, an air concentration of 95%, a humidity of 100% and a temperature of 37° C. […] The control was replaced with peptide-free culture solution. Culture medium replacement was followed by further culturing for 24 hours.
The culture medium was replaced with peptide-containing culture solution, and the rat trigeminal nerve cells cultured for 24 hours were immersed in a 2% paraformaldehyde solution at room temperature for 20 minutes for fixing. The cells were washed with PBS, and then 2% bovine serum albumin containing 0.1% TritonX-100 was added and reaction was conducted for 30 minutes. After washing with PBS, it was reacted with phospho-neurofilament H antibody (Merck, MAB1592-C) specifically recognizing neurofilaments forming the neuron bodies and neurites, for 1 hour at room temperature. After reaction for 1 hour, a fluorescent-labeled secondary antibody (Invitrogen Corp., #A-11031) was reacted at room temperature for 1 hour for fluorescent staining of the sample, and the stained cells were observed under a fluorescent microscope. The stained cell image was captured as an image from the fluorescent microscope and loaded into a computer.
In order to evaluate the extent of neurite formation by the rat trigeminal nerve cells, cells with neurites having lengths of at least twice the cell body diameter in the stained cell image in the computer were counted as neurite-forming cells, and the percentage (%) of this number of cells over the total cell count was calculated (Otori Y. Wei J Y, Barnstable C J. Invest. Ophthalmol Vis Sci (1998) 39, 972-981). The significant difference with respect to the control was determined by Dunnett's test (P<0.001).

Data set [2] in a line: Peptide stability test, Tris buffer (pH 7.0), 60° C. storage, HPLC remaining rate. It counts as physicochemical. The note with it: 100 μM in Tris buffer pH 7.0. Summed up:
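Peptides at 100 μM in Tris buffer (pH 7.0) stored 1 or 2 weeks at 60° C.; unstored sample kept at −30° C. as initial reference. Remaining peptide quantified by reversed-phase HPLC at 220 nm (formic acid/acetonitrile gradient, 40° C. column), as water-corrected remaining rate.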

Another data set addresses T2, VPAC1 receptor (UniProt P32241 31-457, limits assumed).
T2 sequence (looked up): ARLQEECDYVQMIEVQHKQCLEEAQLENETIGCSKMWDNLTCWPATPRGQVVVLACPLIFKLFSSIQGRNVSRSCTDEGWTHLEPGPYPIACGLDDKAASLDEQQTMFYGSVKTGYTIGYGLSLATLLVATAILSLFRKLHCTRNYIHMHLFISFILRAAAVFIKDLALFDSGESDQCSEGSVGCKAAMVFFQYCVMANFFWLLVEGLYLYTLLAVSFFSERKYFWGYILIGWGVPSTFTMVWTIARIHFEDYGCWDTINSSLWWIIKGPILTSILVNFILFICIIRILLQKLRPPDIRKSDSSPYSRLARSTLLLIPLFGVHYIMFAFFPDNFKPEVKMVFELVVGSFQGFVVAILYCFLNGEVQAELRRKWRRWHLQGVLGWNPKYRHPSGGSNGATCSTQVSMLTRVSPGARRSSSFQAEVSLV
Nature of the data set: cell-based or functional assay.

In another data set the target is T3, PAC1 receptor (UniProt P41586 21-468, limits assumed).
T3 sequence (looked up): T1 sequence (P41586 21-468)
Nature of the data set: cell-based or functional assay.

Square brackets hold non-standard residues; d marks the D form. Peptide text beside a SMILES is read from it. * marks the point of attachment. Ala(1H-tetrazol-5-yl) = N[C@@H](Cc1nnn[nH]1)C(=O)O; Ms = CS(=O)(=O)*

In general, EC50 refers to the midpoint of the concentration-response curve. For the molecule `CC[C@H](C)[C@H](NC(=O)CNC(=O)[C@H](Cc1nnn[nH]1)NC(=O)[C@H](CO)NC(=O)[C@H](Cc1c[nH]cn1)NC(C)=O)C(=O)N[C@@H](Cc1ccccc1)C(=O)N[C@H](C(=O)N[C@@H](Cc1nnn[nH]1)C(=O)N[C@@H](CO)C(=O)N[C@@H](Cc1ccc(O)cc1)C(=O)N[C@@H](CO)C(=O)N[C@@H](CCCNC(=N)N)C(=O)N[C@@H](Cc1ccc(O)cc1)C(=O)N[C@@H](CCCNC(=N)N)C(=O)N[C@@H](CCCCN)C(=O)N[C@@H](CCC(N)=O)C(=O)N[C@@H](C)C(=O)N[C@@H](C)C(=O)N[C@H](C(=O)N[C@@H](CCCCN)C(=O)N[C@@H](CCCCN)C(=O)N[C@@H](Cc1ccc(O)cc1)C(=O)N[C@@H](CC(C)C)C(=O)N[C@@H](C)C(=O)N[C@@H](C)C(=O)N[C@H](C(=O)N[C@@H](CC(C)C)C(N)=O)C(C)C)C(C)C)[C@@H](C)O` [Peptide 18] (Ac-HS[Ala(1H-tetrazol-5-yl)]GIFT[Ala(1H-tetrazol-5-yl)]SYSRYRKQAAVKKYLAAVL-NH2), on PAC1R, the EC50 was found to be 0.061 nM. Also, the “axon elongation (percentage of neurite-forming cells)” value in data set [1] is listed as “exhibited axon elongation-promoting effects”. Besides, in data set [2] (Table 7), the “remaining rate after correction for water, 60° C., 1 week preservation” value was 96.7% and the “remaining rate after correction for water, 60° C., 2 weeks preservation” value (from here on “remaining rate … 2 weeks preservation”) is on record as 90.6%.
On to `CC[C@H](C)[C@H](NC(=O)CNC(=O)[C@H](Cc1nnn[nH]1)NC(=O)[C@H](CO)NC(=O)[C@H](Cc1c[nH]cn1)NS(C)(=O)=O)C(=O)N[C@@H](Cc1ccccc1)C(=O)N[C@H](C(=O)N[C@@H](Cc1nnn[nH]1)C(=O)N[C@@H](CO)C(=O)N[C@@H](Cc1ccc(O)cc1)C(=O)N[C@@H](CO)C(=O)N[C@@H](CCCNC(=N)N)C(=O)N[C@@H](Cc1ccc(O)cc1)C(=O)N[C@@H](CCCNC(=N)N)C(=O)N[C@@H](CCCCN)C(=O)N[C@@H](CCC(N)=O)C(=O)N[C@@H](CC(C)C)C(=O)N[C@@H](C)C(=O)N[C@H](C(=O)N[C@@H](CCCCN)C(=O)N[C@@H](CCCCN)C(=O)N[C@@H](Cc1ccc(O)cc1)C(=O)N[C@@H](CC(C)C)C(=O)N[C@@H](C)C(=O)N[C@@H](C)C(=O)N[C@H](C(=O)N[C@@H](CC(C)C)C(N)=O)C(C)C)C(C)C)[C@@H](C)O` [Peptide 12] (Ms-HS[Ala(1H-tetrazol-5-yl)]GIFT[Ala(1H-tetrazol-5-yl)]SYSRYRKQLAVKKYLAAVL-NH2), for which the “axon elongation (percentage of neurite-forming cells)” value in data set [1] is listed as “exhibited axon elongation-promoting effects”. Moreover, in data set [2] (Table 7), the “remaining rate after correction for water, 60° C., 1 week preservation” value is reported as 97.0% and the “remaining rate … 2 weeks preservation” value came to 93.6%.
Regarding `CC[C@H](C)[C@H](NC(=O)[C@H](C)NC(=O)[C@H](Cc1nnn[nH]1)NC(=O)[C@H](CO)NC(=O)[C@H](Cc1c[nH]cn1)NS(C)(=O)=O)C(=O)N[C@@H](Cc1ccccc1)C(=O)N[C@H](C(=O)N[C@@H](Cc1nnn[nH]1)C(=O)N[C@@H](CO)C(=O)N[C@@H](Cc1ccc(O)cc1)C(=O)N[C@@H](CO)C(=O)N[C@@H](CCCNC(=N)N)C(=O)N[C@@H](Cc1ccc(O)cc1)C(=O)N[C@@H](CCCNC(=N)N)C(=O)N[C@@H](CCCCN)C(=O)N[C@@H](CCC(N)=O)C(=O)N[C@@H](C)C(=O)N[C@@H](C)C(=O)N[C@H](C(=O)N[C@@H](CCCCN)C(=O)N[C@@H](CCCCN)C(=O)N[C@@H](Cc1ccc(O)cc1)C(=O)N[C@@H](CC(C)C)C(=O)N[C@@H](C)C(=O)N[C@@H](C)C(=O)N[C@H](C(=O)N[C@@H](CC(C)C)C(N)=O)C(C)C)C(C)C)[C@@H](C)O` [Peptide 31] (Ms-HS[Ala(1H-tetrazol-5-yl)]AIFT[Ala(1H-tetrazol-5-yl)]SYSRYRKQAAVKKYLAAVL-NH2), the “axon elongation (percentage of neurite-forming cells)” value in data set [1] was “exhibited axon elongation-promoting effects”. The “remaining rate … 2 weeks preservation” value in data set [2] (Table 7-2) worked out at 90.1%.

B1: Peptide 9 (peptide)
peptide: HSXGIFTXSYSRYRKQLAVKKYLAAVL
modifications: N-terminal acetyl (Ac-); Tz (aspartic acid with carboxyl group replaced by tetrazole) at positions 3 and 8; C-terminal amide (NH2)
On to B1, for which, in the data set with VPAC1 receptor, the “EC50 (VPAC1R), cAMP inducing effect” value amounted to 0.043 nM. In addition, the “EC50 (PAC1R), cAMP inducing effect” value with PAC1 receptor was determined as 0.063 nM.

B2: Peptide 7 (peptide)
peptide: HSXGIFTXSYSRYRKQLAVKKYLAAVL
modifications: Tz (aspartic acid with carboxyl group replaced by tetrazole) at positions 3 and 8; C-terminal amide (NH2)
For B2, in the data set with VPAC1 receptor, the “EC50 (VPAC1R), cAMP inducing effect” value came to 0.114 nM. In addition, the “EC50 (PAC1R), cAMP inducing effect” value with PAC1 receptor came to 0.112 nM.

B3: Peptide 8 (peptide)
peptide: HSXGIFTXSYSRYRKQXAVKKYLAAVL
modifications: N-terminal acetyl (Ac-); Tz (aspartic acid with carboxyl group replaced by tetrazole) at positions 3 and 8; norleucine at position 17; C-terminal amide (NH2)
Take B3: in the data set with VPAC1 receptor, the “EC50 (VPAC1R), cAMP inducing effect” value was 0.046 nM. Moreover, the “EC50 (PAC1R), cAMP inducing effect” value with PAC1 receptor came to 0.072 nM.

B4: Peptide 6 (peptide)
peptide: HSXGIFTXSYSRYRKQXAVKKYLAAVL
modifications: Tz (aspartic acid with carboxyl group replaced by tetrazole) at positions 3 and 8; norleucine at position 17; C-terminal amide (NH2)
With B4, the “EC50 (VPAC1R), cAMP inducing effect” value with VPAC1 receptor amounted to 0.093 nM. In addition, in the data set with PAC1 receptor, the “EC50 (PAC1R), cAMP inducing effect” value was determined as 0.079 nM.
